The test system of this data set is umbilical cord-derived mesenchymal stem cells. Put plainly: surfactant cytotoxicity and cell growth, CCK-8 in transwell. The format is cell-based. The protocol: The toxicity of poloxamer (poloxamer 407, p407), sodium methyl cocoyl taurate (DIAPON K-SF), polyoxyethylene sorbitan monolaurate (Tween 20) or methylprednisolone, which are known as representative biocompatible surfactants, was confirmed.
Specifically, in the upper chamber in a transwell including a three-dimensional porous membrane, the surfactant p407, DIAPON K-SF or Tween 20 was respectively treated at 0, 0.5 1, 5 or 15% (v/v) and coated for 2 hours in the same manner as in [Example 2], and then, the umbilical cord-derived mesenchymal stem cells obtained in [Example 1] were seeded at 20,000 cells/cm^2. The cell growth medium was placed in the lower chamber and cultured for 3 days. On days 1, 2 and 3, the CCK-8 (Cat. CK04, DOJINDO) solution was added, and after 3 hours of reaction in a 37° C. CO2 incubator, absorbance was measured at 450 nm to analyze cytotoxicity (FIG. 4) and the degree of cell growth (FIG. 5).
Further, in a transwell including a three-dimensional porous membrane, the surfactant p407, methylprednisolone or Tween 20 was treated at a concentration of 4 mM in the upper chamber, and after coating for 2 hours in the same manner as in [Example 2], the umbilical cord-derived mesenchymal stem cells obtained in [Example 1] were seeded at 20,000 cell/cm^2. The cell growth medium was placed in the lower chamber and cultured for 3 days. On days 1, 2 and 3, the CCK-8 solution was added, and after 3 hours of reaction in a 37° C. CO2 incubator, absorbance was measured at 450 nm to analyze cytotoxicity (FIG. 6) and the degree of cell growth (FIG. 7).

For the compound “sodium methyl cocoyl taurate [DIAPON K-SF]”, the “cell proliferation, CCK-8 day 1 to day 3” value (surfactant 0, 0.5, 1, 5 or 15% (v/v) coating (FIG. 5)) is given as “cells did not proliferate”. The “cytotoxicity, CCK-8 day 1” value (surfactant 0, 0.5, 1, 5 or 15% (v/v) coating, day 1 (FIG. 4)) is on record as “toxic to cells”.
With `C[C@H]1C[C@@H]2[C@H]([C@@H](O)C[C@@]3(C)[C@H]2CC[C@]3(O)C(=O)CO)[C@@]2(C)C=CC(=O)C=C12` [methylprednisolone], the “cell proliferation, CCK-8 day 1 to day 3” value (surfactant 4 mM coating (FIG. 7)) is “cells did not proliferate”. Besides, for the setting “surfactant 4 mM coating, day 1 (FIG. 6)”, the “cytotoxicity, CCK-8 day 1” value is “toxic to cells”.

(Values after US20230248776A1, “OSTEOBLASTS DIFFERENTIATED FROM MESENCHYMAL STEM CELLS AND COMPOSITION FOR TREATING BONE DISEASE COMPRISING SAME” (CEFO Co., Ltd., priority 2020, published 2023).)
